Results on two compounds are retold here after PMC3898987 (Bioorganic & Medicinal Chemistry, 2013).

Assay [1] addresses T1, 5-HT3AB receptor, 5-HT3B subunit W90C (Homo sapiens, UniProt O95264+P46098, W83C).
T1 sequence (P46098 24-478): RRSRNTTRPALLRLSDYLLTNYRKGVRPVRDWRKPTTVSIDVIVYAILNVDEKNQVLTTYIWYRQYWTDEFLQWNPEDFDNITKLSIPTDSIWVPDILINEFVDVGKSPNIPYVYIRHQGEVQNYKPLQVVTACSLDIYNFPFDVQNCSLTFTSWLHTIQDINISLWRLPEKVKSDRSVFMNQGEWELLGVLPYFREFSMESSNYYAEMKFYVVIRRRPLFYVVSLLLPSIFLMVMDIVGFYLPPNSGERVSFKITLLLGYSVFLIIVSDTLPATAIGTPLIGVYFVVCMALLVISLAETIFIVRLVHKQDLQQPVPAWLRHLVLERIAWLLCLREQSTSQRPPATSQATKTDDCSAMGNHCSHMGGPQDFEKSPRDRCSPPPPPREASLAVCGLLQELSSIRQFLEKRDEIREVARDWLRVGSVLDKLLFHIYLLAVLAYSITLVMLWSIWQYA
T1 sequence (O95264 22-441 W83C): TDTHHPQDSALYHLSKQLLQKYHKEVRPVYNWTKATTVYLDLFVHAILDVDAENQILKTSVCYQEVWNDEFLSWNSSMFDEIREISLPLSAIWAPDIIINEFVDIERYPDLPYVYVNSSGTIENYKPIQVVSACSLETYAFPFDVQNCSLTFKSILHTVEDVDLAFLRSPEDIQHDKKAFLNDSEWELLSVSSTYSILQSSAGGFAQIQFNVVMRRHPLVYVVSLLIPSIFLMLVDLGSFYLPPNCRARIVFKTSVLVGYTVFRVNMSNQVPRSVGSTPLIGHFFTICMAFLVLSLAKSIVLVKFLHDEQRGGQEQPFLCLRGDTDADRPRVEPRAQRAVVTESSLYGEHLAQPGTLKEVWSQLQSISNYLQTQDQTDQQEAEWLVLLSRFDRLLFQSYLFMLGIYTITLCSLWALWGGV
Description: FlexStation membrane potential dye functional assay, HEK293 cells. Conditions: 5-HT concentration-response, 5-HT3AB with 5-HT3B W90C.
Description: Human embryonic kidney (HEK) 293 cells were cultured on 90 mm tissue culture plates at 37 °C and 7% CO2 in a humidified atmosphere. They were grown in DMEM:F12 (Dulbecco’s Modified Eagle’s Medium/Nutrient Mix F12 (1:1)) with GlutaMAX I™ containing 10% fetal calf serum and passaged when confluent. […] For FlexStation assays, transfected cells were plated on 96-well plates and incubated 1–2 days before assay.
(§1) Fluorometric studies were undertaken using a FlexStation® (Molecular Devices, Sunnyvale, CA, USA) as previously described.[11]
(§2) Fluorescence was measured every 2 s for 200 s. […] Concentration–response and inhibition curves were obtained for each mutant, and the fluorescence values were normalized to the maximal response.

For the next assay, the target named is T2, 5-HT3A receptor Y73F (Homo sapiens, UniProt P46098, Y68F).
T2 sequence (P46098 24-478 Y68F): T1 sequence (P46098 24-478) with Y45F
The assay can be described thus: radioligand saturation binding, transfected HEK293 membranes. Conditions: [3H]-palonosetron saturation, 5-HT3A Y73F, 4 °C, 24 h.

The target of the next assay is T3, 5-HT3A receptor W183C (Homo sapiens, UniProt P46098, W178C).
T3 sequence (P46098 24-478 W178C): T1 sequence (P46098 24-478) with W155C
The description is as above. Conditions: [3H]-palonosetron saturation, 5-HT3A W183C, 4 °C, 24 h, NB = no binding.

The target of assay [2] is T4, 5-HT3AB receptor, 5-HT3B subunit Y143A (Homo sapiens, UniProt O95264+P46098, Y136A).
T4 sequence (P46098 24-478): T1 sequence (P46098 24-478)
T4 sequence (O95264 22-441 Y136A): T1 sequence (O95264 22-441 W83C) with C62W, Y115A
The assay can be described thus: cell-based.
Description: For FlexStation assays, transfected cells were plated on 96-well plates and incubated 1–2 days before assay.
as §1, §2

As a reminder, the Kd is the equilibrium constant for the complex coming apart. The low end stands for higher affinity, the high end for lower affinity. As a reminder, the IC50 is the concentration that gives 50% inhibition. Lower therefore signals inhibition by little substance.

Where a chain is given by its changes, count along the chain named. Bounds are passed on as bounds.

Description for 5-HT3A receptor W183C: (§3) Human embryonic kidney (HEK) 293 cells were cultured on 90 mm tissue culture plates at 37 °C and 7% CO2 in a humidified atmosphere. They were grown in DMEM:F12 (Dulbecco’s Modified Eagle’s Medium/Nutrient Mix F12 (1:1)) with GlutaMAX I™ containing 10% fetal calf serum and passaged when confluent. For radioligand binding studies, cells in 90 mm dishes were transfected at 60–70% confluency using polyethyleneimine and incubated for 3–4 days before use. For FlexStation assays, transfected cells were plated on 96-well plates and incubated 1–2 days before assay. […]
(§4) Eight-point binding assays were performed to produce saturation binding curves. […] Radioactive counts were measured using a Beckman LS6000SC liquid scintillation counter (Fullerton, California, USA).
(§5) Data were analyzed by iterative curve fitting using GraphPad Prism v5 (San Diego, CA) according to the following equation: B=Bmax[L]^n/kdn+[L]^n where B is the amount of bound radioligand, Bmax is the maximum specific binding at equilibrium, [L] is the concentration of radioligand, Kd is the equilibrium dissociation constant of the radioligand, and n is the Hill coefficient.
Description for 5-HT3A receptor Y73F: as §3, §4, §5

Turning to `NCCc1c[nH]c2ccc(O)cc12` [5-HT, serotonin], the “Hill Coefficient” value in assay [1] was determined as 2.0 ± 0.4.

In the case of `O=C1c2cccc3c2[C@H](CCC3)CN1[C@@H]1CN2CCC1CC2` [Palonosetron], the Kd was 0.25 ± 0.04 nM on 5-HT3A receptor Y73F; over 2 nM on 5-HT3A receptor W183C; “no saturable, specific binding” at 5-HT3A receptor W183C (listed as [^3H]palonosetron). In assay [2], this compound returned a half-inhibitory concentration (IC50) of 0.38 ± 0.05 nM.
